Assay results as given in patent US20190029257A1, “APPLICATION FOR HERBICIDE-TOLERANT PROTEIN” (BEIJING DABEINONG TECHNOLOGY GROUP CO., LTD., priority 2016, published 2019).

Key:
Format in all cases: in vivo
[1] = test system: Gm chloroplastic ALT-1-01 soybean plants; experiment: Halosulfuron-methyl tolerance of soybean plants (damage degree); conditions: 34 g ai/ha (1x Hal.); for Average damage % 3 DAT: 3 days after spraying; for Average damage % 7 DAT: 7 days after spraying; for Average damage % 14 DAT: 14 days after spraying; for Average damage % 21 DAT: 21 days after spraying
Text: (§1) The herbicide tolerance effects of Gm cytoplasmic ALT-1-01 soybean plants, Gm chloroplastic ALT-1-01 soybean plants, Gm cytoplasmic ALT-2-01 soybean plants, Gm chloroplastic ALT-2-01 soybean plants, Gm cytoplasmic ALT-3-01 soybean plants, Gm chloroplastic ALT-3-01 soybean plants and wild-type soybean plants on halosulfuron-methyl were detected (at seedling stage), respectively.
(§2) Gm cytoplasmic ALT-1-01 soybean plants, Gm chloroplastic ALT-1-01 soybean plants, Gm cytoplasmic ALT-2-01 soybean plants, Gm chloroplastic ALT-2-01 soybean plants, Gm cytoplasmic ALT-3-01 soybean plants, Gm chloroplastic ALT-3-01 soybean plants and wild-type soybean plants were respectively taken and sprayed with halosulfuron-methyl (34 g ai/ha, 1-fold field concentration) and a blank solvent (water). The damage degree caused by the herbicide was measured for each plant according to the leaf curl degree and the growth point damage degree 3 days after spraying (3 DAT), 7 days after spraying (7 DAT), 14 days after spraying (14 DAT) and 21 days after spraying (21 DAT), respectively: considering conditions of leaves being flat as the untreated plants and growth points being intact as having a damage degree of 0%; considering conditions of veins being locally browned, new leaves being malformed and plant growth being slow as having a damage degree of 50%; and considering conditions of veins being purple to whole plant being dead and growth points being browned and dry as having a damage degree of 100%. There were 2 strains in Gm cytoplasmic ALT-1-01 soybean plants in total (S1 and S2), 2 strains in Gm chloroplastic ALT-1-01 soybean plants in total (S3 and S4), 2 strains in Gm cytoplasmic ALT-2-01 soybean plants in total (S5 and S6), 2 strains in Gm chloroplastic ALT-2-01 soybean plants in total (S7 and S8), 2 strains in Gm cytoplasmic ALT-3-01 soybean plants in total (S9 and S10), 2 strains in Gm chloroplastic ALT-3-01 soybean plants in total (S11 and S12), and 1 strain in wild-type soybean plants (CK1) in total; and 10-15 plants were selected from each strain and tested.

[2] = test system: Gm chloroplastic ALT-2-01 soybean plants; experiment: as above; conditions: 34 g ai/ha (1x Hal.); for Average damage % 3 DAT: 3 days after spraying; for Average damage % 7 DAT: 7 days after spraying; for Average damage % 14 DAT: 14 days after spraying; for Average damage % 21 DAT: 21 days after spraying
Text: as §1, §2

[3] = test system: Gm cytoplasmic ALT-1-01 soybean plants; experiment: as above; conditions: 34 g ai/ha (1x Hal.); for Average damage % 3 DAT: 3 days after spraying; for Average damage % 7 DAT: 7 days after spraying; for Average damage % 14 DAT: 14 days after spraying; for Average damage % 21 DAT: 21 days after spraying
Text: as §1, §2

[4] = test system: Gm cytoplasmic ALT-2-01 soybean plants; experiment: as above; conditions: 34 g ai/ha (1x Hal.); for Average damage % 3 DAT: 3 days after spraying; for Average damage % 7 DAT: 7 days after spraying; for Average damage % 14 DAT: 14 days after spraying; for Average damage % 21 DAT: 21 days after spraying
Text: as §1, §2

[5] = test system: Gm cytoplasmic ALT-3-01 soybean plants; experiment: as above; conditions: 34 g ai/ha (1-fold field concentration); for Average damage % 3 DAT: 3 days after spraying; for Average damage % 7 DAT: 7 days after spraying; for Average damage % 14 DAT: 14 days after spraying; for Average damage % 21 DAT: 21 days after spraying
Text: as §1, §2

[6] = test system: Gm chloroplastic ALT-3-01 soybean plants; experiment: as above; set-up: dose or concentration left out as unconfirmed; conditions: for Average damage % 3 DAT: 3 days after spraying; for Average damage % 7 DAT: 7 days after spraying; for Average damage % 14 DAT: 14 days after spraying; for Average damage % 21 DAT: 21 days after spraying
Text: as §1
as §2, with “([…])” for “(34 g ai/ha, 1-fold field concentration)”

[7] = test system: transgenic soybean plants (ALT-1, ALT-2 and ALT-3); experiment: Halosulfuron-methyl tolerance of soybean plants; conditions: 34 g ai/ha; summary of Table 3
Method: as §2, with “There were 2 strains in Gm cytoplasmic ALT-1-01 soybean plants in total (S1 and S2), 2 strains in Gm chloroplastic ALT-1-01 soybean plants in total (S3 and S4), 2 strains in Gm cytoplasmic ALT-2-01 soybean plants in total (S5 and S6), 2 strains in Gm chloroplastic ALT-2-01 soybean plants in total (S7 and S8), 2 strains in Gm cytoplasmic ALT-3-01 soybean plants in total (S9 and S10), 2 strains in Gm chloroplastic ALT-3-01 soybean plants in total (S11 and S12), and 1 strain in wild-type soybean plants (CK1) in total; and 10-15 plants were selected from each strain and tested.” left out

## COC(=O)c1c(Cl)nn(C)c1S(=O)(=O)NC(=O)Nc1nc(OC)cc(OC)n1 [halosulfuron-methyl, 3-chlorine-5-(4,6-dimethoxypyrimidine-2-aminocarbonylaminosulphonyl)-1-methylpyrazole-4-carboxylic acid methyl ester]
[1]; strain S3
  Average damage % 3 DAT: 10%
  Average damage % 7 DAT: 5%
  Average damage % 14 DAT: 0%
  Average damage % 21 DAT: 0%
[1]; strain S4
  Average damage % 3 DAT: 11%
  Average damage % 7 DAT: 5%
  Average damage % 14 DAT: 0%
  Average damage % 21 DAT: 0%
[2]; strain S7
  Average damage % 3 DAT: 10%
  Average damage % 7 DAT: 4%
  Average damage % 14 DAT: 0%
  Average damage % 21 DAT: 0%
[2]; strain S8
  Average damage % 3 DAT: 9%
  Average damage % 7 DAT: 5%
  Average damage % 14 DAT: 0%
  Average damage % 21 DAT: 0%
[3]; strain S1
  Average damage % 3 DAT: 13%
  Average damage % 7 DAT: 7%
  Average damage % 14 DAT: 0%
  Average damage % 21 DAT: 0%
[3]; strain S2
  Average damage % 3 DAT: 12%
  Average damage % 7 DAT: 6%
  Average damage % 14 DAT: 0%
  Average damage % 21 DAT: 0%
[4]; strain S5
  Average damage % 3 DAT: 14%
  Average damage % 7 DAT: 6%
  Average damage % 14 DAT: 0%
  Average damage % 21 DAT: 0%
[4]; strain S6
  Average damage % 3 DAT: 12%
  Average damage % 7 DAT: 6%
  Average damage % 14 DAT: 0%
  Average damage % 21 DAT: 0%
[5]; strain S9
  Average damage % 3 DAT: 13%
  Average damage % 7 DAT: 6%
  Average damage % 14 DAT: 0%
  Average damage % 21 DAT: 0%
[5]; strain S10
  Average damage % 3 DAT: 12%
  Average damage % 7 DAT: 5%
  Average damage % 14 DAT: 0%
  Average damage % 21 DAT: 0%
[6]; strain S11
  Average damage % 3 DAT: 10%
  Average damage % 7 DAT: 4%
  Average damage % 14 DAT: 0%
  Average damage % 21 DAT: 0%
[6]; strain S12
  Average damage % 3 DAT: 11%
  Average damage % 7 DAT: 5%
  Average damage % 14 DAT: 0%
  Average damage % 21 DAT: 0%
[7]
  tolerance of the plants to the herbicide: high level of halosulfuron-methyl herbicide tolerance
